In ChEMBL document CHEMBL3785058, “Design and synthesis of novel 3-sulfonylpyrazol-4-amino pyrimidines as potent anaplastic lymphoma kinase (ALK) inhibitors” (Bioorg Med Chem Lett, 2016):
Activity calls are given as the source filed them. The calls are words filed in the database; no cut-off is given here.

How the values were obtained:
[1] = Ratio of IC50 for human ERG to IC50 for human NCI-H2228 cells
NCI-H2228 [2] = assay: Antiproliferative activity against human NCI-H2228 cells after 96 hrs by CellTiter-Glo assay; type: functional, cell-based; details: NCI-H2228, 96 h
[3] = Antiproliferative activity against human KARPAS299 cells after 96 hrs by CellTiter-Glo assay; type: functional, cell-based; details: KARPAS-299, 96 h
[4] = biological target: ALK tyrosine kinase receptor (Homo sapiens, UniProt Q9UM73); assay: Inhibition of recombinant human wild type ALK using tyrosine kinase substrate-biotin after 30 mins by HTRF assay
[5] = biological target: ALK tyrosine kinase receptor (Homo sapiens, UniProt Q9UM73, L1196M); assay: Inhibition of recombinant human ALK L1196M mutant using tyrosine kinase substrate-biotin after 30 mins by HTRF assay
NCI-H2228 [6] = details: Homo sapiens
Description: Antitumor activity against human NCI-H2228 cells xenografted in Balb/c nude mouse assessed as tumor growth inhibition at 30 mg/kg, po qd administered for two weeks measured after 1 week during compound dosing

[7] = Volume of distribution in Sprague-Dawley rat at 1 mg/kg, iv; type: ADME, organism-based; details: in vivo
[8] = Half life in Balb/c nude mouse at 1 mg/kg, iv; type: ADME, organism-based; details: in vivo
Mus musculus [9] = assay: In vivo inhibition of ALK in human KARPAS299 cells xenografted in mouse assessed as suppression of STAT3 phosphorylation at 20 mg/kg measured after 8 hrs; type: functional; details: KARPAS-299, 8 h
NCI-H2228 [10] = assay: Antitumor activity against human NCI-H2228 cells xenografted in Balb/c nude mouse assessed as tumor growth inhibition at 30 mg/kg, po qd administered for two weeks measured on day 14 post last dose; type: functional; details: 336 h, read-out: TGI
[11] = Volume of distribution in Beagle dog at 1 mg/kg, iv; type: ADME, organism-based, Canis lupus familiaris; details: in vivo
[12] = Volume of distribution in Balb/c nude mouse at 1 mg/kg, iv; type: ADME, organism-based; details: in vivo
[13] = Clearance in Beagle dog at 1 mg/kg, iv; type: ADME, organism-based, Canis lupus familiaris; details: in vivo
[14] = Tmax in Beagle dog at 3 mg/kg, po; type: ADME, organism-based, Canis lupus familiaris; details: in vivo
[15] = Half life in Sprague-Dawley rat at 1 mg/kg, iv; type: ADME, organism-based; details: in vivo
[16] = Cmax in Sprague-Dawley rat at 5 mg/kg, po; type: ADME, organism-based; design: dose 5 mg/kg, route oral; details: in vivo
[17] = AUC(0 to infinity) in Balb/c nude mouse at 5 mg/kg, po; type: ADME, organism-based; design: dose 5 mg/kg, time infinity, route oral; details: in vivo
[18] = Tmax in Balb/c nude mouse at 5 mg/kg, po; type: ADME, organism-based; details: in vivo
[19] = AUC(0 to infinity) in Sprague-Dawley rat at 5 mg/kg, po; type: ADME, organism-based; design: dose 5 mg/kg, route oral, time infinity; details: in vivo
[20] = Clearance in Balb/c nude mouse at 1 mg/kg, iv; type: ADME, organism-based; details: in vivo
[21] = Tmax in Sprague-Dawley rat at 5 mg/kg, po; type: ADME, organism-based; details: in vivo
[22] = Oral bioavailability in Balb/c nude mouse at 5 mg/kg; type: ADME, organism-based; details: in vivo
[23] = Cmax in Balb/c nude mouse at 5 mg/kg, po; type: ADME, organism-based; design: dose 5 mg/kg, route oral; details: in vivo
[24] = AUC(0 to infinity) in Balb/c nude mouse at 1 mg/kg, iv; type: ADME, organism-based; design: dose 1 mg/kg, route intravenous, time infinity; details: in vivo
NCI-H2228 [25] = details: Homo sapiens; remark: listed apart in the source
Description: Antitumor activity against human NCI-H2228 cells xenografted in Balb/c nude mouse assessed as tumor growth inhibition administered as po qd for two weeks

[26] = Oral bioavailability in Sprague-Dawley rat at 5 mg/kg; type: ADME, organism-based; details: in vivo
[27] = Half life in Beagle dog at 1 mg/kg, iv; type: ADME, organism-based, Canis lupus familiaris; details: in vivo
NCI-H2228 [28] = assay: Antitumor activity against human NCI-H2228 cells xenografted in Balb/c nude mouse assessed as tumor growth inhibition at 3 mg/kg, po qd administered for two weeks measured on day 14 post last dose; type: functional; details: 336 h, read-out: TGI
[29] = Oral bioavailability in Beagle dog at 3 mg/kg; type: ADME, organism-based, Canis lupus familiaris; details: in vivo
[30] = AUC(0 to infinity) in Sprague-Dawley rat at 1 mg/kg, iv; type: ADME, organism-based; design: dose 1 mg/kg, route intravenous, time infinity; details: in vivo
[31] = AUC(0 to infinity) in Beagle dog at 3 mg/kg, po; type: ADME, organism-based, Canis lupus familiaris; design: dose 3 mg/kg, route oral, time infinity; details: in vivo
[32] = Clearance in Sprague-Dawley rat at 1 mg/kg, iv; type: ADME, organism-based; details: in vivo
[33] = AUC(0 to infinity) in Beagle dog at 1 mg/kg, iv; type: ADME, organism-based, Canis lupus familiaris; design: dose 1 mg/kg, time infinity, route intravenous; details: in vivo
Mus musculus [34] = assay: Toxicity in Balb/c nude mouse xenografted with human NCI-H2228 cells assessed as change in body weight at 30 mg/kg, po qd administered for two weeks; type: organism-based; details: in vivo
NCI-H2228 [35] = details: Homo sapiens; remark: listed apart in the source
Description: Antitumor activity against human NCI-H2228 cells xenografted in Balb/c nude mouse assessed as tumor growth inhibition at 10 mg/kg, po qd administered for two weeks

[36] = Cmax in Beagle dog at 3 mg/kg, po; type: ADME, organism-based, Canis lupus familiaris; design: dose 3 mg/kg, route oral; details: in vivo

Chain of ALK tyrosine kinase receptor (Homo sapiens, UniProt Q9UM73, L1196M) (Q9UM73 19-1620 L1196M limits assumed): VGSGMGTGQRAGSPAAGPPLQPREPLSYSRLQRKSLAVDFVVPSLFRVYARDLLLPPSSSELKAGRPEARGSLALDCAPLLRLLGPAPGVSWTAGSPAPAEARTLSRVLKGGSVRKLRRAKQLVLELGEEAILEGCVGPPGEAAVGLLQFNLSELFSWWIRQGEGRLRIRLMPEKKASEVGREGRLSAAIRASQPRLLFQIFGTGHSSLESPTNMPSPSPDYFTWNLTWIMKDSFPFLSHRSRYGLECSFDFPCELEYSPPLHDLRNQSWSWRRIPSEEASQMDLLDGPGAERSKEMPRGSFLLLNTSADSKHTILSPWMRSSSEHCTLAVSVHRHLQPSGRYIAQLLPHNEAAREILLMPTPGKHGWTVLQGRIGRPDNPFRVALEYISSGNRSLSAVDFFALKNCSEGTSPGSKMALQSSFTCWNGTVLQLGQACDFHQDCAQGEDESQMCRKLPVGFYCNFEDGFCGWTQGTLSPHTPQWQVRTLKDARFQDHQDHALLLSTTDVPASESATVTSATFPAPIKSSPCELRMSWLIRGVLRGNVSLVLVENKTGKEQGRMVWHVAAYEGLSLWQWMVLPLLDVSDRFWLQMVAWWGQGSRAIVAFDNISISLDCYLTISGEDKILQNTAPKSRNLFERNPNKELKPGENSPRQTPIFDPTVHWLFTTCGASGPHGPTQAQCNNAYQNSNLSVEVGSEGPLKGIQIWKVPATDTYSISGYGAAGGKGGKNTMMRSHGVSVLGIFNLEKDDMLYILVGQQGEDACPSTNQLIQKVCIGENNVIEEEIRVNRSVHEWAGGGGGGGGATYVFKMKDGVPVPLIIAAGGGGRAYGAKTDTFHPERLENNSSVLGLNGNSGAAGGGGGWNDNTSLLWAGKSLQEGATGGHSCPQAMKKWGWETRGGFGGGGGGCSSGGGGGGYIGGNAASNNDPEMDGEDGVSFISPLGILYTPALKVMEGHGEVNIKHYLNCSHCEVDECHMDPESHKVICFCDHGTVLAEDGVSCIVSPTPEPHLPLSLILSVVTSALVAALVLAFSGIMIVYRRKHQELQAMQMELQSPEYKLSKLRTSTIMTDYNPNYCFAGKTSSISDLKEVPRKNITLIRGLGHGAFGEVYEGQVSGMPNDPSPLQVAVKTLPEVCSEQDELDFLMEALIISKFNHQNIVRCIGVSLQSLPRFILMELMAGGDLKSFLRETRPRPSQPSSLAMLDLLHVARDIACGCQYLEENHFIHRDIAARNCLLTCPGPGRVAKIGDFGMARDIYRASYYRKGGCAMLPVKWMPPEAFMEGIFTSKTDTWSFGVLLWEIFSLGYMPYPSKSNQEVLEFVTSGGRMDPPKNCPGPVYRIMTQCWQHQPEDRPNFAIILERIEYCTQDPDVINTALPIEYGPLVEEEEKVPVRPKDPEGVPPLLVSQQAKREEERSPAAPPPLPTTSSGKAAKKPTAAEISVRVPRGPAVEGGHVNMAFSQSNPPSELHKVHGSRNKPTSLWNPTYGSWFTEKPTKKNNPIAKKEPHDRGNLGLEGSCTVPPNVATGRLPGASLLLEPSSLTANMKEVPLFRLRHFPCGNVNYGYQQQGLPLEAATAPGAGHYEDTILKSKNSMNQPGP
Chain of ALK tyrosine kinase receptor (Homo sapiens, UniProt Q9UM73) (Q9UM73 whole entry): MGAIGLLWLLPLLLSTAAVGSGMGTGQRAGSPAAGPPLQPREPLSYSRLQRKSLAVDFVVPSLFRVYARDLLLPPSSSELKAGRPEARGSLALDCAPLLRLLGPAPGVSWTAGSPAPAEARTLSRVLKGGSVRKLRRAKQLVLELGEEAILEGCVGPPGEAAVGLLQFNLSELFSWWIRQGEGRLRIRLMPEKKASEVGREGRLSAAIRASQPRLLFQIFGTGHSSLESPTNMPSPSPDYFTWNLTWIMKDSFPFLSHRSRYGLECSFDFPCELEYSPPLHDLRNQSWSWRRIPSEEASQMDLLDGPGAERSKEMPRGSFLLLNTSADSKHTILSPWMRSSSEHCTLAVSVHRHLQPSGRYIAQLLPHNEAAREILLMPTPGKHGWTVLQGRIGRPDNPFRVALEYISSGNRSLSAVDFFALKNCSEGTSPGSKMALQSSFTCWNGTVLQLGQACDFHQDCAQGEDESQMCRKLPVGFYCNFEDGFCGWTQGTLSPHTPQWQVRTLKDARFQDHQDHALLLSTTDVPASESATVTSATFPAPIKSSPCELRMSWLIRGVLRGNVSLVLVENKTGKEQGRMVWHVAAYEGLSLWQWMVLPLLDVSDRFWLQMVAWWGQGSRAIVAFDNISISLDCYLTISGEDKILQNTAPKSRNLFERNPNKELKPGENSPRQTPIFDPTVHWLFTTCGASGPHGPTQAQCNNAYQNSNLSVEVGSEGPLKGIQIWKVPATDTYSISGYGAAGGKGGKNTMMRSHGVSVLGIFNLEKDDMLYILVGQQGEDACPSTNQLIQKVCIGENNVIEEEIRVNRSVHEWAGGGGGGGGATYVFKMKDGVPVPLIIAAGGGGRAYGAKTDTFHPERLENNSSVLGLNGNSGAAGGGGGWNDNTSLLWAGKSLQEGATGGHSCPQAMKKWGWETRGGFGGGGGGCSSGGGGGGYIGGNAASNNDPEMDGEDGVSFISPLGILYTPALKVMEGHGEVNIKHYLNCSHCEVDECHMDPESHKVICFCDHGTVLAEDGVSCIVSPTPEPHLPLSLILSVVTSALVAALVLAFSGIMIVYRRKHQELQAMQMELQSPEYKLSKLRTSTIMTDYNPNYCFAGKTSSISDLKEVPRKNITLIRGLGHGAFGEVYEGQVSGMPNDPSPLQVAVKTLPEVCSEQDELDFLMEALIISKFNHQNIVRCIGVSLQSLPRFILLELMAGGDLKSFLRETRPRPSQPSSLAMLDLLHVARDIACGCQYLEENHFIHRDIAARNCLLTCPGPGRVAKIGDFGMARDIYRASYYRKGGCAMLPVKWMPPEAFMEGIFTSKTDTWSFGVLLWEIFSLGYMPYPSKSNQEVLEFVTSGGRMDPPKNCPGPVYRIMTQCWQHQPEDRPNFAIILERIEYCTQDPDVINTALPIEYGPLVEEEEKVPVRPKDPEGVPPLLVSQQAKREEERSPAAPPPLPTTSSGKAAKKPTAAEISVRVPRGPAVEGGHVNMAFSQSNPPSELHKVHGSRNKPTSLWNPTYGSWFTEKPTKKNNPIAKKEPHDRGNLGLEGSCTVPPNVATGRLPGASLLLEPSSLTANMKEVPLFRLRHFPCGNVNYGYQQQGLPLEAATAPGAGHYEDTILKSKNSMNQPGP

Cc1cc(Nc2ncc(Cl)c(Nc3cn(C)nc3S(=O)(=O)C(C)C)n2)c(OC2CC2)cc1C1CCC(N2CCN(C)CC2)CC1 (mixture of isomers)
Ratio IC50 [1]: 6
IC50 (NCI-H2228 [2]): 141 nM

Cc1cc(Nc2ncc(F)c(Nc3cn(C)nc3S(=O)(=O)C(C)C)n2)c(OC2CC2)cc1C1CCN(C)CC1
IC50 (NCI-H2228 [2]): 81 nM

Cc1nc(S(=O)(=O)C(C)C)c(Nc2nc(Nc3cc(C)c(C4CCN(C)CC4)cc3OC3CC3)ncc2Cl)s1
IC50 (NCI-H2228 [2]): 150 nM

Cc1cc(Nc2ncc(Cl)c(Nc3cn(C)nc3S(=O)(=O)C(C)C)n2)c(OC2CC2)cc1[C@H]1CC[C@H](NC2CC2)CC1
Ratio IC50 [1]: 23
IC50 [3]: 9 nM
IC50 (NCI-H2228 [2]): 88 nM

Cc1nc(Nc2nc(Nc3cc(C)c(C4CCN(C)CC4)cc3OC3CC3)ncc2Cl)c(S(=O)(=O)C(C)C)s1
IC50 [4]: 3 nM
IC50 [5]: 19 nM
IC50 (NCI-H2228 [2]): 490 nM

Cc1cc(Nc2ncc(Cl)c(Nc3cn(C)nc3S(C)(=O)=O)n2)c(OC(C)C)cc1C1CCNCC1
IC50 [3]: 288 nM
IC50 [4]: 56 nM
IC50 [5]: 94 nM

Cc1cc(Nc2ncc(Cl)c(Nc3cn(C)nc3S(=O)(=O)C3CC3)n2)c(OC(C)C)cc1C1CCNCC1
IC50 [3]: > 10000 nM
IC50 [4]: 400 nM
IC50 [5]: > 10000 nM
IC50 (NCI-H2228 [2]): > 10000 nM

Cc1cc(Nc2ncc(Cl)c(Nc3cn(C)nc3S(=O)(=O)C(C)C)n2)c(OC2CC2)cc1[C@H]1CC[C@@H](NC2CC2)CC1
Ratio IC50 [1]: 15
IC50 [4]: 8 nM
IC50 [5]: 20 nM
IC50 (NCI-H2228 [2]): 116 nM

Cc1cc(Nc2ncc(Cl)c(Nc3cn(C)nc3S(=O)(=O)C(C)C)n2)c(OC2CC2)cc1C1CCS(=O)(=O)CC1
Ratio IC50 [1]: 206
IC50 [4]: 3 nM
IC50 [5]: 9 nM
IC50 (NCI-H2228 [2]): 97 nM

Cc1cc(Nc2ncnc(Nc3cn(C)nc3S(=O)(=O)C(C)C)n2)c(OC2CC2)cc1C1CCN(C)CC1
IC50 [4]: 36 nM
IC50 [5]: 111 nM

Cc1cc(Nc2ncc(Cl)c(Nc3cn(C)nc3S(=O)(=O)C(C)C)n2)c(OC2CC2)cc1[C@H]1CC[C@H](NS(C)(=O)=O)CC1
IC50 [3]: 18 nM
IC50 [4]: 16 nM
IC50 [5]: 20 nM
IC50 (NCI-H2228 [2]): 151 nM

CCC(C)S(=O)(=O)c1nn(C)cc1Nc1nc(Nc2cc(C)c(C3CCNCC3)cc2OC(C)C)ncc1Cl (centres undefined)
IC50 [3]: 21 nM
IC50 (NCI-H2228 [2]): 224 nM

COc1ccc(Cn2cc(Nc3nc(Nc4cc(C)c(C5CCNCC5)cc4OC(C)C)ncc3Cl)c(S(=O)(=O)C(C)C)n2)cc1
IC50 [3]: > 624 nM
IC50 [4]: 129 nM
IC50 [5]: 157 nM

CC(=O)N1CCN([C@H]2CC[C@H](c3cc(OC4CC4)c(Nc4ncc(Cl)c(Nc5cn(C)nc5S(=O)(=O)C(C)C)n4)cc3C)CC2)CC1
TGI (NCI-H2228 [6]): Active
Vd [7]: 8.5 L/kg
half-life [8]: 1.4 h
inhibition in vivo at 20 mg/kg (Mus musculus [9]): 79.2%
inhibition in vivo at 30 mg/kg (NCI-H2228 [10]): 140%
Vd [11]: 6.1 L/kg
Vd [12]: 4.6 L/kg
clearance [13]: 11.1 mL/min/kg
Ratio IC50 [1]: 33
Tmax [14]: 1 h
half-life [15]: 4.5 h
Cmax [16]: 220 ng/mL
AUC(0-inf) [17]: 1700 ng·h/mL
Tmax [18]: 0.5 h
AUC(0-inf) [19]: 3200 ng·h/mL
clearance [20]: 37.5 mL/min/kg
Tmax [21]: 6 h
IC50 [3]: 7 nM
bioavailability [22]: 76.5%
Cmax [23]: 446 ng/mL
AUC(0-inf) [24]: 445 ng·h/mL
TGI (NCI-H2228 [25]): Dose-dependent effect
bioavailability [26]: 85.3%
half-life [27]: 6.4 h
inhibition in vivo at 3 mg/kg (NCI-H2228 [28]): 50%
bioavailability [29]: 74%
AUC(0-inf) [30]: 770 ng·h/mL
AUC(0-inf) [31]: 3340 ng·h/mL
clearance [32]: 21.9 mL/min/kg
AUC(0-inf) [33]: 1500 ng·h/mL
Activity (Mus musculus [34]): Non-toxic
TGI (NCI-H2228 [35]): Active
Cmax [36]: 355 ng/mL
IC50 (NCI-H2228 [2]): 76 nM

Cc1cc(Nc2ncc(Cl)c(Nc3cn(C)nc3C#N)n2)c(OC2CC2)cc1C1CCN(C)CC1
IC50 (NCI-H2228 [2]): 272 nM

Cc1cc(Nc2ncc(Cl)c(Nc3c[nH]nc3S(=O)(=O)C(C)C)n2)c(OC(C)C)cc1C1CCNCC1
IC50 [3]: 1250 nM
IC50 [4]: 22 nM
IC50 [5]: 28 nM
